# Source: patent US20220081412A1, “QUINOLINYL-PYRAZINE-CARBOXAMIDE COMPOUNDS AND USES THEREOF” (The Regents of the University of Michigan, priority 2018, published 2022)
# Test system: MIA PaCa-2 cells
# Experiment: Bru-seq analysis for nascent RNA synthesis (log2FC of genes, GSEA gene sets)
# Assay type: cell-based, human
# Settings: 4 h
# [1] = gene set HALLMARK_IL2_STAT5_SIGNALING
# [2] = gene set HALLMARK_IL6_JAK_STAT3_SIGNALING
# [3] = gene set HALLMARK_MTORC1_SIGNALING
# [4] = gene set HALLMARK_OXIDATIVE_PHOSPHORYLATION
# [5] = gene set HALLMARK_PI3K_AKT_MTOR_SIGNALING
# [6] = gene set HALLMARK_TNFA_SIGNALING_VIA_NFKB
# [7] = gene set HALLMARK_UNFOLDED_PROTEIN_RESPONSE
# [8] = gene set HALLMARK_UV_RESPONSE_UP
# [9] = gene set HALLMARK_XENOBIOTIC_METABOLISM
# [10] = gene set HELLER_SILENCED_BY_METHYLATION_DN
# [11] = gene set KAN_RESPONSE_TO_ARSENIC_TRIOXIDE
# [12] = gene set KEGG_ACUTE_MYELOID_LEUKEMIA
# [13] = gene set KEGG_ADIPOCYTOKINE_SIGNALING_PATHWAY
# [14] = gene set KEGG_ALDOSTERONE_REGULATED_SODIUM_REABSORPTION
# [15] = gene set KEGG_ANTIGEN_PROCESSING_AND_PRESENTATION
# [16] = gene set KEGG_CITRATE_CYCLE_TCA_CYCLE
# [17] = gene set KEGG_ENDOMETRIAL_CANCER
# [18] = gene set KEGG_FATTY_ACID_METABOLISM
# [19] = gene set KEGG_FRUCTOSE_AND_MANNOSE_METABOLISM
# [20] = gene set KEGG_GLYCEROLIPID_METABOLISM
# [21] = gene set KEGG_GLYCOLYSIS_GLUCONEOGENESIS
# [22] = gene set KEGG_INSULIN_SIGNALING_PATHWAY
# [23] = gene set KEGG_MAPK_SIGNALING_PATHWAY
# [24] = gene set KEGG_MTOR_SIGNALING_PATHWAY
# [25] = gene set KEGG_OXIDATIVE_PHOSPHORYLATION
# [26] = gene set KEGG_PARKINSONS_DISEASE
# [27] = gene set KEGG_PORPHYRIN_AND_CHLOROPHYLL_METABOLISM
# [28] = gene set KEGG_PPAR_SIGNALING_PATHWAY
# [29] = gene set KEGG_PYRUVATE_METABOLISM
# [30] = gene set KEGG_SNARE_INTERACTIONS_IN_VESICULAR_TRANSPORT
# [31] = gene set KEGG_SYSTEMIC_LUPUS_ERYTHEMATOSUS
# [32] = gene set KEGG_VALINE_LEUCINE_AND_ISOLEUCINE_DEGRADATION
# [33] = gene set PODAR_RESPONSE_TO_ADAPHOSTIN_UP
# [34] = gene set REACTOME_CHOLESTEROL_BIOSYNTHESIS
# [35] = gene set REACTOME_RNA_POL_I_PROMOTER_OPENING
# [36] = gene set REACTOME_UNFOLDED_PROTEIN_RESPONSE
# [37] = gene set SCHMIDT_POR_TARGETS_IN_LIMB_BUD_UP
# [38] = gene set WILCOX_RESPONSE_TO_PROGESTERONE_UP
# [39] = gene set ZHANG_TLX_TARGETS_36HR_UP
# [40] = top downregulated genes, MIA PaCa-2 cells
smiles,measurement,setting,value
"CCN(CC)CCCC(C)Nc1cnc(C(=O)Nc2cc(C)cc3cccnc23)cn1 (stereo not shown) [J4, 5-((5-(diethylamino)pentan-2-yl)amino)-N-(6-methylquinolin-8-yl)pyrazine-2-carboxamide]",ES,[1],0.424
same,NES,[1],1.597
same,ES,[2],0.443
same,NES,[2],1.405
same,ES,[3],0.626
same,NES,[3],2.450
same,ES,gene set HALLMARK_MYOGENESIS,0.541
same,NES,gene set HALLMARK_MYOGENESIS,1.885
same,ES,[4],0.403
same,NES,[4],1.601
same,ES,gene set HALLMARK_P53_PATHWAY,0.565
same,NES,gene set HALLMARK_P53_PATHWAY,2.171
same,ES,gene set HALLMARK_PEROXISOME,0.457
same,NES,gene set HALLMARK_PEROXISOME,1.612
same,ES,[5],0.566
same,NES,[5],2.033
same,ES,[6],0.536
same,NES,[6],2.043
same,ES,[7],0.582
same,NES,[7],2.173
same,ES,[8],0.478
same,NES,[8],1.769
same,ES,[9],0.409
same,NES,[9],1.503
same,ES,[10],0.714
same,NES,[10],2.396
same,ES,gene set HORTON_SREBF_TARGETS,0.911
same,NES,gene set HORTON_SREBF_TARGETS,2.446
same,ES,[11],0.655
same,NES,[11],2.270
same,ES,[12],0.524
same,NES,[12],1.701
same,ES,[13],0.547
same,NES,[13],1.770
same,ES,[14],0.556
same,NES,[14],1.480
same,ES,[15],0.536
same,NES,[15],1.506
same,ES,[16],0.561
same,NES,[16],1.683
same,ES,[17],0.482
same,NES,[17],1.543
same,ES,[18],0.507
same,NES,[18],1.505
same,ES,[19],0.547
same,NES,[19],1.529
same,ES,[20],0.573
same,NES,[20],1.640
same,ES,[21],0.578
same,NES,[21],1.735
same,ES,[22],0.455
same,NES,[22],1.663
same,ES,gene set KEGG_LYSOSOME,0.611
same,NES,gene set KEGG_LYSOSOME,2.224
same,ES,[23],0.393
same,NES,[23],1.504
same,ES,gene set KEGG_MELANOGENESIS,0.526
same,NES,gene set KEGG_MELANOGENESIS,1.713
same,ES,[24],0.530
same,NES,[24],1.631
same,ES,[25],0.464
same,NES,[25],1.705
same,ES,[26],0.424
same,NES,[26],1.536
same,ES,[27],0.613
same,NES,[27],1.657
same,ES,[28],0.583
same,NES,[28],1.733
same,ES,gene set KEGG_PROSTATE_CANCER,0.445
same,NES,gene set KEGG_PROSTATE_CANCER,1.564
same,ES,[29],0.525
same,NES,[29],1.529
same,ES,[30],0.535
same,NES,[30],1.642
same,ES,[31],0.689
same,NES,[31],2.185
same,ES,[32],0.491
same,NES,[32],1.536
same,ES,gene set LEONARD_HYPDXIA,0.811
same,NES,gene set LEONARD_HYPDXIA,2.480
same,ES,gene set LE_EGR2_TARGETS_DN,0.689
same,NES,gene set LE_EGR2_TARGETS_DN,2.287
same,ES,[33],0.678
same,NES,[33],2.520
same,ES,gene set QI_HYPDXIA,0.624
same,NES,gene set QI_HYPDXIA,2.258
same,ES,gene set REACTOME_AMYLO1DS,0.753
same,NES,gene set REACTOME_AMYLO1DS,2.309
same,ES,[34],0.913
same,NES,[34],2.477
same,ES,[35],0.820
same,NES,[35],2.377
same,ES,[36],0.651
same,NES,[36],2.246
same,ES,[37],0.921
same,NES,[37],2.469
same,ES,[38],0.642
same,NES,[38],2.380
same,ES,[39],0.615
same,NES,[39],2.339
same,ES,gene set ZHANG_TLX_TARGETS_UP,0.710
same,NES,gene set ZHANG_TLX_TARGETS_UP,2.353
same,log2FC ABCA1,[40],−1.14
same,log2FC AGAP6,[40],−0.85
same,log2FC AKAP5,[40],−0.77
same,log2FC CACNG8,[40],−0.75
same,log2FC CCND1,[40],−0.67
same,log2FC FERMT1,[40],−0.91
same,log2FC GPR75-ASB3,[40],−0.89
same,log2FC GPR135,[40],−1.30
same,log2FC HRH4,[40],−1.09
same,log2FC MX2,[40],−0.78
same,log2FC NEXN,[40],−0.76
same,log2FC NOG,[40],−0.93
same,log2FC NOXRED1,[40],−0.73
same,log2FC NPIPB11,[40],−0.67
same,log2FC NPR2,[40],−1.08
same,log2FC NTSR1,[40],−0.89
same,log2FC PTCH2,[40],−0.72
same,log2FC RFLNB,[40],−0.79
same,log2FC SPDYA,[40],−1.18
same,log2FC SYCE2,[40],−0.98
same,log2FC TAS2R20,[40],−0.81
same,log2FC TNS4,[40],−1.05
same,log2FC TSPAN4,[40],−0.68
same,log2FC TXNRD3NB,[40],−0.72
same,log2FC ZDHHC11,[40],−0.86
